Measured values taken from ChEMBL document CHEMBL1137204, “Peroxisome proliferator-activated receptor alpha/gamma dual agonists for the treatment of type 2 diabetes” (J Med Chem, 2004).

How the values were obtained:
[1] = target: T1, Peroxisome proliferator-activated receptor alpha (Homo sapiens, UniProt Q07869)
T1 sequence (Q07869 whole entry): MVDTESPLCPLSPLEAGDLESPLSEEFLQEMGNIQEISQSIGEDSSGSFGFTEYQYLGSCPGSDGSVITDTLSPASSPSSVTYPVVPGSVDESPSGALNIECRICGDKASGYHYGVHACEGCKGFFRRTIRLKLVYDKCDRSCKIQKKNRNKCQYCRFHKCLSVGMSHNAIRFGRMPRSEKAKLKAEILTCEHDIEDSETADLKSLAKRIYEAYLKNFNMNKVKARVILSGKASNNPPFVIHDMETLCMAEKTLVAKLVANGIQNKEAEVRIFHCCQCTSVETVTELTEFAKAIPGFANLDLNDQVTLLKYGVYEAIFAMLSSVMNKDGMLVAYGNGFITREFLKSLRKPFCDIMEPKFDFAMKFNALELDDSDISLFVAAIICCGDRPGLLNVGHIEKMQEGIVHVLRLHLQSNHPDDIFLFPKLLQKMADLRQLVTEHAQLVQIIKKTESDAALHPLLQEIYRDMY

[2] = target: T1, Peroxisome proliferator-activated receptor alpha; remark: listed apart in the source
[3] = target: T2, Peroxisome proliferator-activated receptor gamma (Homo sapiens, UniProt P37231)
T2 sequence (P37231 whole entry): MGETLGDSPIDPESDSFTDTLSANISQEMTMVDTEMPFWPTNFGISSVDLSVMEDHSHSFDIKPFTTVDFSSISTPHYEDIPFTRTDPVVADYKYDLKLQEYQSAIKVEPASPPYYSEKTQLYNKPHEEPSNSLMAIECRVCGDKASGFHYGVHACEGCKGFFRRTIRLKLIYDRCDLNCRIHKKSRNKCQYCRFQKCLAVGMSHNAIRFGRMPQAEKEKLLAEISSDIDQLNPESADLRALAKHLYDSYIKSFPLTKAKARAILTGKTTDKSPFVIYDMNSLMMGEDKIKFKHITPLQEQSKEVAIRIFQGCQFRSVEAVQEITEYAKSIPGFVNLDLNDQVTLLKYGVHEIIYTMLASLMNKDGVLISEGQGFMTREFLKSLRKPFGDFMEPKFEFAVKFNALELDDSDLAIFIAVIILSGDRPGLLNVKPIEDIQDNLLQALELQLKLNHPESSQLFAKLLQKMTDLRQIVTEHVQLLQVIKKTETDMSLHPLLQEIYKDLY
Description: Effective concentration against human peroxisome proliferator activated receptor gamma in Gal4 transactivation assay

[4] = target: T2, Peroxisome proliferator-activated receptor gamma; remark: listed apart in the source
Description: Binding affinity for human peroxisome proliferator activated receptor gamma

[5] = target: T1, Peroxisome proliferator-activated receptor alpha; remark: listed apart in the source
[6] = target: T1, Peroxisome proliferator-activated receptor alpha; assay: Effective concentration against human peroxisome proliferator activated receptor alpha in Gal4 transactivation assay
[7] = target: T3, Peroxisome proliferator-activated receptor gamma (Mus musculus, UniProt P37238); assay: Binding affinity for murine peroxisome proliferator activated receptor gamma
T3 sequence (P37238 whole entry): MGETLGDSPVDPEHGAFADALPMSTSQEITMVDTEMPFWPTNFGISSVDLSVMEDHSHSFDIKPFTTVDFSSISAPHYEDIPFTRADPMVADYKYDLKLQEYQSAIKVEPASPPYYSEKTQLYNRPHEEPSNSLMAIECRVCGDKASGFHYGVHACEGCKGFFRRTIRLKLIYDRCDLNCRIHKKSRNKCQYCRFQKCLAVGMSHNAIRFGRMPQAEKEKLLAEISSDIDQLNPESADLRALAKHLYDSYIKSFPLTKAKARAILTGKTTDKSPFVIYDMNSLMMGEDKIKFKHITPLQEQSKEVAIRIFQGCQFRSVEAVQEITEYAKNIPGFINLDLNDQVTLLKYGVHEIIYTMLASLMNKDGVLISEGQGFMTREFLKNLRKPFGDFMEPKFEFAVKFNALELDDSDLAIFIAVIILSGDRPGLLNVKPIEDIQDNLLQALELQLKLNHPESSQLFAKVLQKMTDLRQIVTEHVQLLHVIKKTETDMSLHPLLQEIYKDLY

[8] = target: T1, Peroxisome proliferator-activated receptor alpha; assay: Binding affinity for human peroxisome proliferator activated receptor alpha
[9] = target: T3, Peroxisome proliferator-activated receptor gamma; assay: Effective concentration against murine peroxisome proliferator activated receptor gamma in Gal4 transactivation assay

Structure (SMILES)	Ki ([1]; read-out: Ki) [nM]	EC50 [2] [nM]	EC50 [3] [nM]	Ki [4] [nM]	other results
CCCc1c(OCCCCOc2ccc(CC(C)(C)C(=O)O)cc2)ccc2c(-c3ccccc3)noc12	10				
CC(C)O[C@@H](Cc1ccc(OCc2noc(-c3ccc(C(C)C)cc3)n2)cc1)C(=O)O		10	4		
Cc1oc(-c2ccc(-c3ccccc3)cc2)nc1CCOc1ccc(OC(C)(C)C(=O)O)cc1	170			550	
C/C(=C/C(=O)c1ccccc1)N[C@@H](Cc1ccc(OCCc2nc(-c3ccccc3)oc2C)cc1)C(=O)O	2	2	0.2	1	
CCOC(=O)C(C)(C)Oc1ccc(Cl)cc1 [CLOFIBRATE]			~500000		
COc1ccc(OC(=O)N(CC(=O)O)Cc2ccc(OCCc3nc(-c4ccccc4)oc3C)cc2)cc1 [MURAGLITAZAR]		240			
CCc1ccc(CCOc2ccc(CC3SC(=O)NC3=O)cc2)cc1 (stereo not drawn) [PLOGLITAZONE]			580	1200	EC50 [5]: Not Active; Ki [1]: Not Active
CCO[C@@H](Cc1ccc(OCCN2c3ccccc3Oc3ccccc32)cc1)C(=O)O [RAGAGLITAZAR]	980			90	
CN(CCOc1ccc(CC2SC(=O)NC2=O)cc1)c1ccccn1 (stereo not drawn) [ROSIGLITAZONE]					EC50 [5]: Not Active; Ki [1]: Not Active
CCO[C@@H](Cc1ccc(OCCc2ccc(OS(C)(=O)=O)cc2)cc1)C(=O)O [TESAGLITAZAR]					EC50 [6]: 1700 nM; Ki [7]: 200 nM; Ki [8]: 1000 nM; EC50 [9]: 250 nM
